Here are results for 25 compounds from patent US20250171467A1, “FUSED PYRAZOLE AMIDE ANALOGS AS GLUCOSYLCERAMIDE SYNTHASE INHIBITORS” (Merck Sharp & Dohme LLC, priority 2022, published 2025).

Sequence of glucosylceramide synthase (GCS) (Q16739 whole entry): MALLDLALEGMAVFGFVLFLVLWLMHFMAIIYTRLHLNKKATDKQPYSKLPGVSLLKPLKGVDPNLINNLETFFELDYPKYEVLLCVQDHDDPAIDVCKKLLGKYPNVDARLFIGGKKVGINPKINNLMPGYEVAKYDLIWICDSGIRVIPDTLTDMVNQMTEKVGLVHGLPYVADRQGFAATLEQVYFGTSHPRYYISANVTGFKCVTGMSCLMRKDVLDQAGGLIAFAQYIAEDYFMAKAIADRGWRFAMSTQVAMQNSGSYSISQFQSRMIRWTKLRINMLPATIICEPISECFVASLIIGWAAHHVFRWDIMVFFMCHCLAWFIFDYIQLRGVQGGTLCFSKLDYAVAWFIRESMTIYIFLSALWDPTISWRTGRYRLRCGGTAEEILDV

The target in the experiment is glucosylceramide synthase (GCS) (Homo sapiens (Human), UniProt Q16739). Briefly: UDP-Glo glucosylceramide synthase biochemical assay. To be noted: endogenous GCS in Golgi preparations from human A375 malignant melanoma skin cells; C6 ceramide and UDP-glucose substrates; 20 h incubation at room temperature; UDP detected by luminescence. From the text:
A UDP-Glo™ glucosylceramide synthase biochemical assay was utilized to evaluate the effect of test compounds on the activity of endogenous levels of GCS enzyme contained within Golgi preparations isolated from human A375 malignant melanoma skin cells. The UDP-Glo™ glucosylceramide synthase assay uses UDP-Glucose as a nucleotide-glycosyl donor and ceramide as substrate acceptor molecules. In the reaction, glucosylceramide synthase (GCS) transfers glucose from UDP-Glucose to ceramide. Glucosylceramide and UDP are released as products.
Using Promega's UDP-Glo™ Glycosyltransferase assay kit (Promega Corporation, Madison, WI, USA (Promega)), GCS activity was indirectly measured by detecting the amount of UDP produced. An aliquot of GCS enzyme (1.5 μg crude golgi preparation, total protein) and titrated test compound were aliquoted to each well and incubated for 30 minutes at room temperature. […] An equivalent volume of substrate mixture was then added to each well. Following a 20 h incubation at room temperature to allow for GCS turnover of substrate, an equal volume of UDP detection reagent (Promega) was added to each well and incubated for an additional 75 minutes at room temperature to simultaneously convert the accumulated UDP product into ATP and generate light in a luciferase reaction. The generated light was detected using a luminometer. […] luminescence values (RLUs) were normalized to mean “min” and “max” effects, as determined on each plate. […] Values for % Emax and EC50 were determined by best-fitting the normalized data to a curve in Activity Base along a four-parameter logistic nonlinear regression (4PL) model (based on the Levenberg-Marquardt algorithm and defined by the equation below): […]
where: n is 4PMin (bottom of the curve); m is 4PMax (top of the curve); i is IP (inflection point of curve); and p is slope. See Levenberg, K., “A Method for the Solution of Certain Problems in Least Squares”, Quart. Appl. Math. 2, (1944), pp 164-168 and Marquardt, D., “An Algorithm for Least Squares Estimation on Nonlinear Parameters”, SIAM J. Appl. Math. 11, (1963) pp 431-441.
`COc1ccc(-n2nc(C(=O)N3CCCNCC3C)c3c2CCOC3)cc1` (racemic) [Compound 7, Racemic-[1-(4-methoxyphenyl)-1,4,6,7-tetrahydropyrano[4,3-c]pyrazol-3-yl]-(2-methyl-1,4-diazepan-1-yl)methanone] registered a 50% effective concentration (EC50) of 250 nM.
As for `COc1ccc(-n2nc(C(=O)N3CCN4CCC3C4)c3c2CCOC3)cc1` (racemic) [Compound 10, Racemic-1,4-diazabicyclo[3.2.1]octan-4-yl-[1-(4-methoxyphenyl)-1,4,6,7-tetrahydropyrano[4,3-c]pyrazol-3-yl]methanone], the concentration for a half-maximal effect (EC50) came to 180 nM.
Then `COc1ccc(-n2nc(C(=O)N3CCC4CCC(C3)N4)c3c2CCOC3)cc1` (racemic) [Compound 12, Racemic-3,9-diazabicyclo[4.2.1]nonan-3-yl-[1-(4-methoxyphenyl)-1,4,6,7-tetrahydropyrano[4,3-c]pyrazol-3-yl]methanone], with 840 nM.
For the compound `COc1ccc(-n2nc(C(=O)N3CCNCC(F)C3)c3c2CCOC3)cc1` (racemic) [Compound 13, Racemic-(6-fluoro-1,4-diazepan-1-yl)-[1-(4-methoxyphenyl)-1,4,6,7-tetrahydropyrano[4,3-c]pyrazol-3-yl]methanone], the EC50 was 2500 nM.
The compound `COc1ccc(-n2nc(C(=O)N3CCN4CCC3C(F)(F)C4)c3c2CCOC3)cc1` (single isomer, unassigned) [Compound 2, [(5˜{R or S})-6,6-difluoro-1,4-diazabicyclo[3.2.2]nonan-4-yl]-[1-(4-methoxyphenyl)-1,4,6,7-tetrahydropyrano[4,3-c]pyrazol-3-yl]methanone] showed an EC50 of 7700 nM. This EC50 is about 3.1-fold higher than that of the compound before.
Take `COc1ccc(-n2nc(C(=O)N3CCN4CCC3C(F)(F)C4)c3c2CCOC3)cc1` (single isomer, unassigned) [Compound 3, [(5˜{S or R})-6,6-difluoro-1,4-diazabicyclo[3.2.2]nonan-4-yl]-[1-(4-methoxyphenyl)-1,4,6,7-tetrahydropyrano[4,3-c]pyrazol-3-yl]methanone]: a half-maximal effect (EC50) was put at 1400 nM.
Then `COc1ccc(-n2nc(C(=O)N3CCN4CCC3C(F)(F)C4)c3c2CCC3)cc1C(F)(F)F` (single isomer, unassigned) [Compound 22, [R or S]-(6,6-difluoro-1,4-diazabicyclo[3.2.2]nonan-4-yl)-[1-[4-methoxy-3-(trifluoromethyl)phenyl]-1,4,5,6-tetrahydrocyclopenta[c]pyrazol-3-yl]methanone], with 16 nM.
Then `COc1ccc(-n2nc(C(=O)N3CC[N@@]4CCC3C(F)(F)C4)c3c2CCC3)cc1C(F)(F)F` (single isomer, unassigned) [Compound 23, [S or R]-(6,6-difluoro-1,4-diazabicyclo[3.2.2]nonan-4-yl)-[1-[4-methoxy-3-(trifluoromethyl)phenyl]-1,4,5,6-tetrahydrocyclopenta[c]pyrazol-3-yl]methanone], with 66 nM.
Then `COc1ccc(-n2nc(C(=O)N3CCCN(C)CC3)c3c2CCOC3)cc1` [Compound 4, [1-(4-methoxyphenyl)-1,4,6,7-tetrahydropyrano[4,3-c]pyrazol-3-yl]-(4-methyl-1,4-diazepan-1-yl)methanone], with 940 nM; and `O=C(c1nn(-c2ccc(OC(F)F)cc2)c2c1COCC2)N1CCN2CCC1CC2` [Compound 5, 1,4-diazabicyclo[3.2.2]nonan-4-yl-[1-[4-(difluoromethoxy)phenyl]-1,4,6,7-tetrahydropyrano[4,3-c]pyrazol-3-yl]methanone], with 29 nM; and `COc1ccc(-n2nc(C(=O)N3CCCNCC3)c3c2CCOC3)cc1` [Compound 6, 1,4-diazepan-1-yl-[1-(4-methoxyphenyl)-1,4,6,7-tetrahydropyrano[4,3-c]pyrazol-3-yl]methanone], with 360 nM.
Consider `COc1ccc(-n2nc(C(=O)N3CCNCC4(CC4)C3)c3c2CCOC3)cc1` [Compound 8, 5,8-diazaspiro[2.6]nonan-8-yl-[1-(4-methoxyphenyl)-1,4,6,7-tetrahydropyrano[4,3-c]pyrazol-3-yl]methanone], for which the EC50 came out at 1200 nM.
The compound `COc1ccc(-n2nc(C(=O)N3CCCN(C)CC3)c3c2CCOC3)cc1C(F)(F)F` [Compound 14, [1-[4-methoxy-3-(trifluoromethyl)phenyl]-1,4,6,7-tetrahydropyrano[4,3-c]pyrazol-3-yl]-(4-methyl-1,4-diazepan-1-yl)methanone] had an EC50 of 320 nM. Against the preceding compound, the EC50 is about 3.8-fold lower.
`COc1ccc(-n2nc(C(=O)N3CCCN(C)CC3)c3c2CCOC3)cc1F` [Compound 15, [1-(3-fluoro-4-methoxyphenyl)-1,4,6,7-tetrahydropyrano[4,3-c]pyrazol-3-yl]-(4-methyl-1,4-diazepan-1-yl)methanone] came in with an EC50 of 730 nM. Against the preceding compound, the EC50 is about 2.3-fold higher.
Then `COc1ccc(-n2nc(C(=O)N3CCN4CCC3CC4)c3c2CCOC3)cc1Cl` [Compound 16, [1-(3-chloro-4-methoxyphenyl)-1,4,6,7-tetrahydropyrano[4,3-c]pyrazol-3-yl]-(1,4-diazabicyclo[3.2.2]nonan-4-yl)methanone], with 2.2 nM.
With `COc1ccc(-n2nc(C(=O)N3CCN4CCC3CC4)c3c2CCC3)cc1` [Compound 17, 1,4-diazabicyclo[3.2.2]nonan-4-yl-[1-(4-methoxyphenyl)-1,4,5,6-tetrahydrocyclopenta[c]pyrazol-3-yl]methanone], the concentration for a half-maximal effect (EC50) worked out at 1.7 nM.
`COc1ccc(-n2nc(C(=O)N3CCN4CCC3CC4)c3c2CCC3)cc1F` [Compound 18, 1,4-diazabicyclo[3.2.2]nonan-4-yl-[1-(3-fluoro-4-methoxyphenyl)-1,4,5,6-tetrahydrocyclopenta[c]pyrazol-3-yl]methanone] yielded an EC50 of 0.9 nM. Against the preceding compound, the EC50 is about 1.9-fold lower.
Then `COc1ccc(-n2nc(C(=O)N3CCN4CCC3CC4)c3c2CCC3)cc1Cl` [Compound 19, [1-(3-chloro-4-methoxyphenyl)-1,4,5,6-tetrahydrocyclopenta[c]pyrazol-3-yl]-(1,4-diazabicyclo[3.2.2]nonan-4-yl)methanone], with 0.3 nM; and `COc1ccc(-n2nc(C(=O)N3CCN4CCC3CC4)c3c2CCC3)cc1C` [Compound 20, 1,4-diazabicyclo[3.2.2]nonan-4-yl-[1-(4-methoxy-3-methylphenyl)-1,4,5,6-tetrahydrocyclopenta[c]pyrazol-3-yl]methanone], with 0.4 nM.
Then `COc1ccc(-n2nc(C(=O)N3CCN4CCC3CC4)c3c2CCC3)cc1C(F)(F)F` [Compound 21, 1,4-diazabicyclo[3.2.2]nonan-4-yl-[1-[4-methoxy-3-(trifluoromethyl)phenyl]-1,4,5,6-tetrahydrocyclopenta[c]pyrazol-3-yl]methanone], with 0.1 nM.
Then `O=C(c1nn(-c2ccc(Cl)c(Cl)c2)c2c1CCC2)N1CCN2CCC1CC2` [Compound 24, 1,4-diazabicyclo[3.2.2]nonan-4-yl-[1-(3,4-dichlorophenyl)-1,4,5,6-tetrahydrocyclopenta[c]pyrazol-3-yl]methanone], with 0.1 nM.
On to `O=C(c1nn(-c2ccc(F)c(Cl)c2)c2c1CCC2)N1CCN2CCC1CC2` [Compound 25, [1-(3-chloro-4-fluorophenyl)-1,4,5,6-tetrahydrocyclopenta[c]pyrazol-3-yl]-(1,4-diazabicyclo[3.2.2]nonan-4-yl)methanone], for which the EC50 turned out to be 1.3 nM.
`O=C(c1nn(-c2cccc(Cl)c2)c2c1CCC2)N1CCN2CCC1CC2` [Compound 26, [1-(3-chlorophenyl)-1,4,5,6-tetrahydrocyclopenta[c]pyrazol-3-yl]-(1,4-diazabicyclo[3.2.2]nonan-4-yl)methanone] yielded an EC50 of 1.5 nM.
`Cc1ccc(-n2nc(C(=O)N3CCN4CCC3CC4)c3c2CCC3)cc1Cl` [Compound 27, [1-(3-chloro-4-methylphenyl)-1,4,5,6-tetrahydrocyclopenta[c]pyrazol-3-yl]-(1,4-diazabicyclo[3.2.2]nonan-4-yl)methanone] registered an EC50 of 0.3 nM. Compared with the last compound, the EC50 is about 5-fold lower.
Then `O=C(c1nn(-c2ccc(OC(F)F)c(Cl)c2)c2c1CCC2)N1CCN2CCC1CC2` [Compound 28, [1-[3-chloro-4-(difluoromethoxy)phenyl]-1,4,5,6-tetrahydrocyclopenta[c]pyrazol-3-yl]-(1,4-diazabicyclo[3.2.2]nonan-4-yl)methanone], with 1.3 nM.
